Reference: article PMC6801739, “Antitumor Activity of a Novel Tyrosine Kinase Inhibitor AIU2001 Due to Abrogation of the DNA Damage Repair in Non-Small Cell Lung Cancer Cells” (International Journal of Molecular Sciences, 2019)

Legend:
c-KIT (V560G) = target: T1, c-KIT (V560G) (Homo sapiens, UniProt P10721, V560G); test: In vitro kinase assay, IC50 (Reaction Biology Corp.); format: biochemical
T1 construct: purchased Eurofins Pharma Discovery (KinaseProfiler); IC50 values by Reaction Biology Corp
T1 sequence (P10721 26-976 V560G): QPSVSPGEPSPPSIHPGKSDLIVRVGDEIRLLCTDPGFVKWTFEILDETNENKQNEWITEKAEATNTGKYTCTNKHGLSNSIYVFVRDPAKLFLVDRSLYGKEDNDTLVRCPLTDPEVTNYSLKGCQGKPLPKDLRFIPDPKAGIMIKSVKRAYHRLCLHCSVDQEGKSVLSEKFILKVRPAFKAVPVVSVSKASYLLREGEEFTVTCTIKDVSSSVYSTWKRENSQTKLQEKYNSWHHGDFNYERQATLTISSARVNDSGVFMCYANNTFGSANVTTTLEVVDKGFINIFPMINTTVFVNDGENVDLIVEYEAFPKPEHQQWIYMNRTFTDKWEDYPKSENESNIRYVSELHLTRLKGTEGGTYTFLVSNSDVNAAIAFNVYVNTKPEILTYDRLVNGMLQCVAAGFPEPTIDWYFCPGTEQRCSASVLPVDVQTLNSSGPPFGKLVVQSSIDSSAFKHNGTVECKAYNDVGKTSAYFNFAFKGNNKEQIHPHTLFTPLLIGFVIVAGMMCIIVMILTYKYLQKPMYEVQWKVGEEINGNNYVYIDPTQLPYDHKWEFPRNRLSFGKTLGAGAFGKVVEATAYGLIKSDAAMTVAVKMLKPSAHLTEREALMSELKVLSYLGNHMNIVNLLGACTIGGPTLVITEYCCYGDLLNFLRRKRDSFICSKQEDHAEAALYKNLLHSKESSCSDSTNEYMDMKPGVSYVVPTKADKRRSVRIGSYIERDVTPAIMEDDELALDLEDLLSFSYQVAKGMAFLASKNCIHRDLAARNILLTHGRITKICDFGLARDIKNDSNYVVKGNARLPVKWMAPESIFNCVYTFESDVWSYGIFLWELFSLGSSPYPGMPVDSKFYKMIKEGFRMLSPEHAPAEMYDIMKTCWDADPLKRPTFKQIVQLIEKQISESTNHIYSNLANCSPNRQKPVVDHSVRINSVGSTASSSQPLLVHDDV

Abl = target: T2, Abl (Homo sapiens, UniProt P00519); test: Kinase profiling at 10 μM (Eurofins); format: biochemical; settings: read-out: Inhibitory activity
T2 construct: purchased Eurofins Pharma Discovery (KinaseProfiler); IC50 values by Reaction Biology Corp

EGFR = target: T3, EGFR (Homo sapiens, UniProt P00533); test: Kinase profiling at 10 μM (Eurofins); format: biochemical; settings: read-out: Inhibitory activity
T3 construct: purchased Eurofins Pharma Discovery (KinaseProfiler); IC50 values by Reaction Biology Corp

EGFR(T790M,L858R) = target: T4, EGFR(T790M,L858R) (Homo sapiens, UniProt P00533, L858R/T790M); test: Kinase profiling at 10 μM (Eurofins); format: biochemical; settings: read-out: Inhibitory activity
T4 construct: purchased Eurofins Pharma Discovery (KinaseProfiler); IC50 values by Reaction Biology Corp
T4 sequence (P00533 25-1210 T790M/L858R): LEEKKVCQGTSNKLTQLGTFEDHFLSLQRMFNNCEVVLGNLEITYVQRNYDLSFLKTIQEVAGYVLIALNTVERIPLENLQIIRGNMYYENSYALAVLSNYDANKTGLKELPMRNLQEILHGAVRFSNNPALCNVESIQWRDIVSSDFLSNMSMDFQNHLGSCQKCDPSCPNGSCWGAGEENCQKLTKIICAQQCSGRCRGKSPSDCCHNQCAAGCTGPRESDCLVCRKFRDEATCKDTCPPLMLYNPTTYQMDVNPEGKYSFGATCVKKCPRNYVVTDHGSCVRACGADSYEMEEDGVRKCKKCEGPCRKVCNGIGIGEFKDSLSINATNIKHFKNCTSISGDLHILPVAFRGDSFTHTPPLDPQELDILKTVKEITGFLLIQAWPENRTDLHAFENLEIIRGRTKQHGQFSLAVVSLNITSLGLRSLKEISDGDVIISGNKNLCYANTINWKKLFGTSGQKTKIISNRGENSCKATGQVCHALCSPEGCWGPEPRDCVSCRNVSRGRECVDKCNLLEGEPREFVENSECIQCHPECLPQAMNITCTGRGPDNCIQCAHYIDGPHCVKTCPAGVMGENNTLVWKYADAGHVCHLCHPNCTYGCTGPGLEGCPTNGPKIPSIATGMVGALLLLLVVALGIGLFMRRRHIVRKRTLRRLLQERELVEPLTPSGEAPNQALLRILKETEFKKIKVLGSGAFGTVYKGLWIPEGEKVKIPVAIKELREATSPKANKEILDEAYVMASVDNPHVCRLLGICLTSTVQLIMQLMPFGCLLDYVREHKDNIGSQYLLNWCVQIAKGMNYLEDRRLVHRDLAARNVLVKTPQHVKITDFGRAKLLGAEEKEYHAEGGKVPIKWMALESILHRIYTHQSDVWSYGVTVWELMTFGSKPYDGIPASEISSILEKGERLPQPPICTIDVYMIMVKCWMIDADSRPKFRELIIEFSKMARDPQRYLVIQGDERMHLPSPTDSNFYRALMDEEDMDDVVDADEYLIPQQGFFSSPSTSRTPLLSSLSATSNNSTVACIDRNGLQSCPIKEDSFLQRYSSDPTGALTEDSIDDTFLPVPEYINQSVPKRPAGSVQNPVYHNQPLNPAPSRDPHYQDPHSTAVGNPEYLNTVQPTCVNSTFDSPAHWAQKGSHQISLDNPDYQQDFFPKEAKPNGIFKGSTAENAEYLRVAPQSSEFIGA

FAK = target: T5, FAK (Homo sapiens, UniProt Q05397); test: Kinase profiling at 10 μM (Eurofins); format: biochemical; settings: read-out: Inhibitory activity
T5 construct: purchased Eurofins Pharma Discovery (KinaseProfiler); IC50 values by Reaction Biology Corp

FLT4 = target: T6, FLT4 (Homo sapiens, UniProt P35916); test: Kinase profiling at 10 μM (Eurofins); format: biochemical; settings: read-out: Inhibitory activity
T6 construct: purchased Eurofins Pharma Discovery (KinaseProfiler); IC50 values by Reaction Biology Corp

TGFBR1 = target: T7, TGFBR1 (Homo sapiens, UniProt P36897); test: Kinase profiling at 10 μM (Eurofins); format: biochemical; settings: read-out: Inhibitory activity
T7 construct: purchased Eurofins Pharma Discovery (KinaseProfiler); IC50 values by Reaction Biology Corp
T7 sequence (P36897 34-503): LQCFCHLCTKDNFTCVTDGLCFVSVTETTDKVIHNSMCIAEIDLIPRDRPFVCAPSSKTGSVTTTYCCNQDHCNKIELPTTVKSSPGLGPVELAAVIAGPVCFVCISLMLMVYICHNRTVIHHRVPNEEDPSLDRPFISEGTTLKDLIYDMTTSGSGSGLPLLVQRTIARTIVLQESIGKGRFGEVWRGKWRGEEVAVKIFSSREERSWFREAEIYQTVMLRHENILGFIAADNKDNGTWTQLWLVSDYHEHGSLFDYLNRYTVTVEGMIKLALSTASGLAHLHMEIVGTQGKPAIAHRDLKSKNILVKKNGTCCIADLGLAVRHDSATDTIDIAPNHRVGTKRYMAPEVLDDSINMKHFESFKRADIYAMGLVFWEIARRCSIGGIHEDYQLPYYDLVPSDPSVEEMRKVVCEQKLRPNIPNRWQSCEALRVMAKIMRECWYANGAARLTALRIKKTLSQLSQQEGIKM

ZAP-70 = target: T8, ZAP-70 (Homo sapiens, UniProt P43403); test: Kinase profiling at 10 μM (Eurofins); format: biochemical; settings: read-out: Inhibitory activity
T8 construct: purchased Eurofins Pharma Discovery (KinaseProfiler); IC50 values by Reaction Biology Corp
T8 sequence (P43403 whole entry): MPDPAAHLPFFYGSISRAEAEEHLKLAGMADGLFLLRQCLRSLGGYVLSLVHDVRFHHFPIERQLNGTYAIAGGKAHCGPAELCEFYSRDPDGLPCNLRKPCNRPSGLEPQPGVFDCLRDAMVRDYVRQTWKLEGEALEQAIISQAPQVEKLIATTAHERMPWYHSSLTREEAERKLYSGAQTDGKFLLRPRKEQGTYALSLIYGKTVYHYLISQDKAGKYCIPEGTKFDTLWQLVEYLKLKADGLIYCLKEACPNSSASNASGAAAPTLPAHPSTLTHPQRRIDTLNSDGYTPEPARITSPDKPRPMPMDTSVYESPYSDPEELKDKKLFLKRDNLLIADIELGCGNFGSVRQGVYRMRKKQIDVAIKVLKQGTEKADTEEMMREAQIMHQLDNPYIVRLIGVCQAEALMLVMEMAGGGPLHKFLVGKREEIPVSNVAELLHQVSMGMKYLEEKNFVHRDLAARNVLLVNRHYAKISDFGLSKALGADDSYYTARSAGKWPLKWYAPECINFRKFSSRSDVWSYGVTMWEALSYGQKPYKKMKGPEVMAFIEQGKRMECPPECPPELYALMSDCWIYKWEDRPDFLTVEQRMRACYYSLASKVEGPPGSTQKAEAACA

PI3 Kinase (p110a/p85a) = target: T9, PI3 Kinase (p110a/p85a) (Homo sapiens, UniProt P42336); test: Kinase profiling at 10 μM (Eurofins); format: biochemical; settings: read-out: Inhibitory activity
T9 construct: purchased Eurofins Pharma Discovery (KinaseProfiler); IC50 values by Reaction Biology Corp
T9 sequence (P42336 whole entry): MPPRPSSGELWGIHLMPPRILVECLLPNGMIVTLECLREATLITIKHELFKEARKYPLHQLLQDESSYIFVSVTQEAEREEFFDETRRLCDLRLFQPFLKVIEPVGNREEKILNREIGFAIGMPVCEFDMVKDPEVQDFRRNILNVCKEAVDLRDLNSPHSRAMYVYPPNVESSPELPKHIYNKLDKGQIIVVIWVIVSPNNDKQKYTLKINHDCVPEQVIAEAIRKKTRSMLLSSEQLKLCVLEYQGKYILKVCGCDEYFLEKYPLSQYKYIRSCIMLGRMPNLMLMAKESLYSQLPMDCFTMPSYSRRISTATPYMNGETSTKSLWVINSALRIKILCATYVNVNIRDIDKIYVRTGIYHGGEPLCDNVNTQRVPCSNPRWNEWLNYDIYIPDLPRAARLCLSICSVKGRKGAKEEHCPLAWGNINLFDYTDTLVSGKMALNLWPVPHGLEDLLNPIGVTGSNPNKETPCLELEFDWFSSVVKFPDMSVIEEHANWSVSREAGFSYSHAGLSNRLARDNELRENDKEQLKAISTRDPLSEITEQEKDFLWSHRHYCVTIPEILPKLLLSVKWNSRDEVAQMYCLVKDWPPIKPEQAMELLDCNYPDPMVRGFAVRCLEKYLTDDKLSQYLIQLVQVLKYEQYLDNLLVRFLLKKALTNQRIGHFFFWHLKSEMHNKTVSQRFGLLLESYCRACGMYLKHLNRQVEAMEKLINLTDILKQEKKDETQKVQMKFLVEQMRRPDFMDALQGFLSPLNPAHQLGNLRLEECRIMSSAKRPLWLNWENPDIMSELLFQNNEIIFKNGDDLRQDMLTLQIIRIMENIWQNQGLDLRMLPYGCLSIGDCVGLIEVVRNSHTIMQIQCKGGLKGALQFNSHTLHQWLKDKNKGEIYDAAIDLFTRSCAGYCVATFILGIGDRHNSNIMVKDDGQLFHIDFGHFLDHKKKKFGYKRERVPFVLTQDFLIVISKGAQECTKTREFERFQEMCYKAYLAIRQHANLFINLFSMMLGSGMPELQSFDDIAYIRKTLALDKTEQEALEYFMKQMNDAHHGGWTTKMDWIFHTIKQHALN
T9 sequence (P27986 whole entry partner): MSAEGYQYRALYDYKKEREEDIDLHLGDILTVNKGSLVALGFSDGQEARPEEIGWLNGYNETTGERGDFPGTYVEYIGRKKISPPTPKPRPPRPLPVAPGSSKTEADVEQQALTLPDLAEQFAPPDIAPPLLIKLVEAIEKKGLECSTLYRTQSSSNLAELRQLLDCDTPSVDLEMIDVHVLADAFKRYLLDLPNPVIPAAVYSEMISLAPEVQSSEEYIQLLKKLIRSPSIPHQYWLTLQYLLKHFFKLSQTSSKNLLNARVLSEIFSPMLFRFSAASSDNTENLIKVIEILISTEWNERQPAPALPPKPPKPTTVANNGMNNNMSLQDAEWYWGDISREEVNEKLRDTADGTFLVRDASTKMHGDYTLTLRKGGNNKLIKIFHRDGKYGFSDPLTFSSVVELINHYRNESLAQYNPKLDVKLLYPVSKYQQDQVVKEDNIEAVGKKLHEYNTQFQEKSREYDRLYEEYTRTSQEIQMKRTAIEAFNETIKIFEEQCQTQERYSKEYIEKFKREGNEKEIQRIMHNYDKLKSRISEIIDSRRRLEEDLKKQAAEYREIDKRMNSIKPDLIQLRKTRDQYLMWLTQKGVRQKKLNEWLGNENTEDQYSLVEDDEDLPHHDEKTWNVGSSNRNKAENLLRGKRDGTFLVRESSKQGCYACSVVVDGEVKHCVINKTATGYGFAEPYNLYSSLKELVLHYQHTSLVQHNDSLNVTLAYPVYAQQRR

A549 xenografts = test: A549 tumor xenograft mouse model; format: in vivo, BALB/c nu/nu mice; settings: 20 mg/kg i.p. once per two or three days, five times
Experimental: We next determined whether the antitumor effect associated with in vitro AIU2001 treatment could be translated into an in vivo xenograft mouse model. Mice were subcutaneously (s.c.) implanted with A549 cells in the right hind leg. When the tumors were palpable (average […]: 150 mm^3; 14days post-implantation), mice were intraperitoneally (i.p.) administered 20 mg/kg AIU2001 or DMSO once per two or three days for five times in total. […] At necropsy, the average tumor weight of mice treated with AIU2001 or DMSO was 1.2 g or 2.8 g, respectively (Figure 2B,C).
Figure 2 AIU2001 inhibited tumor growth of A549 xenografts in nude mice. (A) A549 cells were s.c. injected into the thigh of the right hind leg of BALB/c nu/nu mice (n = 4/group). Two weeks after tumor cell injection, AIU2001 (20 mg/kg) or DMSO was administered (i.p.) once per two or three days for five times in total. The longest (L) and shortest (W) tumor axes were measured, and tumor volume (mm^3) was calculated as L × W^2/2. The data shown represent the average tumor volume (* p < 0.05). (B) The weight of the resected tumors was measured at the end of the experiment (*** p < 0.001). (C) Image of resected tumors from mice. (D) The body weights of A549 tumor xenograft mice were determined twice weekly during the experiments.
A549 human lung cancer cell xenografts were initially established by s.c. implanting 1 × 10^6 cultured cells into the thigh of the right hind leg of six week old mice. When tumor volumes had reached approximately 150 mm^3, AIU2001 ([…]) was administered i.p. once per two or three days for five times in total. All animal experiments were reviewed and approved by the Institutional Animal Care & Use Committee of Korea Institute of Radiological and Medical Sciences (kirams2018-0063, 6 December 2018).
Two axes of the tumor (L, longest axis; W, shortest axis) were measured twice per week after irradiation using Vernier calipers. Tumor volume was calculated as (L × W^2)/2 (mm^3).

A549 cells [1] = test: Cell cycle analysis (PI, flow cytometry); format: cell-based, human; settings: 5 μM
Experimental: (§1) Samples were collected at the indicated time points and fixed in 70% cold ethanol overnight. For cell cycle analysis, the fixed cells were treated with RNase for 20 min before addition of 50 μg/mL PI and analyzed using FACS Calibur™ (BD Biosciences, San Jose, CA, USA).

H1299 cells [2] = test: Cell cycle analysis (PI, flow cytometry); format: cell-based, human; settings: 5 μM
Experimental: as §1

A549 cells [3] = test: γ-H2AX immunofluorescence foci assay; format: cell-based, human; settings: 5 μM
Experimental: (§2) For γ-H2AX and 4′,6-diamidino-2-phenylindole (DAPI) staining, cells were fixed in 4% paraformaldehyde for 15 min at room temperature and permeabilized with 0.1% Triton X-100 in PBS for 20 min. The cells were then incubated with 1:200 dilution of anti-phosho-H2AX (Ser139) antibody overnight at 4 °C. AlexaFluor 594-conjugated anti-mouse IgG antibody (Abcam, Cambridge, UK) was used at 1:400 dilution for 1 h at room temperature. The slides were mounted in mounting medium (DAKO, Santa Clara, CA, USA) with DAPI (ThermoFisher Scientific) before imaging. Images were acquired using an LSM880 laser scanning microscope (ZEISS, Jena, Germany). Fluorescent images were captured using the appropriate filters. Images were analyzed using the Image J and ZEN software.

H1299 cells [4] = test: γ-H2AX immunofluorescence foci assay; format: cell-based, human; settings: 5 μM
Experimental: as §2

A549 cells [5] = test: Clonogenic survival assay with γ-radiation; format: cell-based, human
Experimental: (§3) Cells were seeded on 60-mm culture dishes at various densities and then treated with DMSO or 2 μM AIU2001. After 2 h, the cells were treated with the indicated doses of ^137Cs γ-radiation. After 10 days, the colonies were fixed and stained with 1.5% methylene blue (Sigma Aldrich) in methanol solution. Colonies containing > 50 cells were counted. The dose enhancement ratio (DER) was calculated as the dose (Gy) of radiation that yielded a surviving fraction of 0.1 for DMSO-treated cells divided by that dose for AIU2001-treated cells. The experiment was performed in triplicate.

H1299 cells [6] = test: Clonogenic survival assay with γ-radiation; format: cell-based, human
Experimental: as §3

FLT3(D835Y) = FLT3(D835Y) (Homo sapiens, UniProt P36888, D835Y); test: In vitro kinase assay, IC50 (Reaction Biology Corp.); format: biochemical; set-up: purchased Reaction Biology Corp. (Malvern, PA, USA)

IC50 (c-KIT (V560G)): 53.4 nM
inhibition at 10 µM (Abl): 51%
inhibition at 10 µM (EGFR): 10%
inhibition at 10 µM (EGFR(T790M,L858R)): 4%
inhibition at 10 µM (FAK): 16%
inhibition at 10 µM (FLT4): ≥ 75%
inhibition at 10 µM (TGFBR1): 12%
inhibition at 10 µM (ZAP-70): 0%
inhibition at 10 µM (PI3 Kinase (p110a/p85a)): 7%
IC50 (FLT3(D835Y)): 108 nM
Compound: Brc1ccc(-c2cnc(Nc3cccc4ccccc34)o2)cc1 [AIU2001, 5-(4-bromophenyl)-N-(naphthalen-1-yl) oxazol-2-amine]
Average tumor weight at necropsy (A549 xenografts): 1.2 g
Body weight versus control mice (A549 xenografts): did not differ
Inhibition of tumor growth compared to the vehicle (A549 xenografts): 48.3%
Cell cycle effect (A549 cells [1]; 3 h, 6 h or 24 h): G2/M phase arrest
Cells in the sub-G1 phase (A549 cells [1]; 24 h): 3.3%
Cell cycle effect (H1299 cells [2]; 3 h, 6 h or 24 h): G2/M phase arrest
Cells in the sub-G1 phase (H1299 cells [2]; 24 h): 23.1%
γ-H2AX foci (A549 cells [3]): high levels of γ-H2AX foci
γ-H2AX foci (H1299 cells [4]): high levels of γ-H2AX foci
Dose enhancement ratio (DER) at surviving fraction of 0.1 over DMSO-treated cells (A549 cells [5]; 2 μM, 2 h before IR, 10 days): 1.33
Radiosensitivity (A549 cells [5]; clonogenic survival): radiosensitized
Dose enhancement ratio (DER) at surviving fraction of 0.1 over DMSO-treated cells (H1299 cells [6]; 2 μM, 2 h before IR, 10 days): 1.15
Radiosensitivity (H1299 cells [6]; clonogenic survival): radiosensitized
